# Measured values reported in ChEMBL document CHEMBL3507680, “University of Dundee, Gates Library screen for HepG2 cell viability”.
# Assay: Human HepG2 cell viability assay in 384 well format
# Type: toxicity, cell-based
# Set-up: dose 125 nL, time 70.5 hour; concentration not given beside the values
# Conditions: HepG2 cells, read-out: Inhibition
row,Compound,cytotoxicity at 70.5 h
1,CC(C)CNC(=O)N1CCC2(CC1)OC(C(N)=O)Cn1ccnc12 (stereo not drawn),-4.1%
2,Cc1nc(CC(=O)N2CCCC[C@H](N(C)C)C2)cs1,-7.83%
3,Cc1ccc(C(=O)N2CCc3nc4c(C)csc4c(=O)n3CC2)cn1,-4.08%
4,COc1ccc(SC(C)C(=O)N2CCC(NC(=O)C3CC3)CC2)cc1 (stereo not drawn),8.09%
5,O=C(CC1CC1)NC[C@]12COC[C@H]1CN(c1ncc(F)cn1)C2,-2.2%
6,Cc1cccc(C)c1Oc1ncccc1CNC(=O)C1COC(=O)N1 (stereo not drawn),-21.8%
7,Cn1c(C(F)(F)F)nn(CCNC(=O)Nc2ccccc2Cl)c1=O,25.1%
8,Cc1cccc(C)c1OC1CN(Cc2cnn(C)c2)C1,0.587%
9,CCN(CC(C)C#N)C(=O)CSc1ccc(C(F)(F)F)cn1 (stereo not drawn),-3.1%
10,O=C(NCC1Cn2nnc(-c3ccccc3)c2CO1)c1ccc[nH]1 (stereo not drawn),1.41%
11,CC(NC(=O)Nc1cc(F)cc(F)c1)c1nc[nH]n1 (stereo not drawn),-5.9%
12,O=C(N[C@@H]1CNCCC[C@H]1O)c1ccc(OCCN2CCOCC2)cc1,1.5%
13,O=C1CCCC2(CCN(C(=O)c3cnccn3)CC2)N1,-4.91%
14,O=S(=O)(C1CC1)N1CCOC2(CCCN(c3ccccc3)C2)C1 (stereo not drawn),7.04%
15,CC(C)N(Cc1ccccn1)C(=O)CCOc1cccc(F)c1,-4.61%
16,CCOCCC(=O)N1CCCN(Cc2csc(CC)n2)CC1,-0.403%
17,O=C(Cc1csc(-c2ccccc2F)n1)NCc1ccc(C(=O)O)cc1,-10.6%
18,O=C1CN(CC2CC2)Cc2nc(NCc3ccccc3)sc21,20.7%
19,Cc1nn(C)c2nc(N3CCNC(=O)C3C(C)C)sc12 (stereo not drawn),10.4%
20,CCOC(=O)c1ccc(NC(=O)c2c(O)nc3c(c2O)CCCC3)cc1,-10.8%
21,CCSc1cc(C(=O)NC2CCN(C(=O)c3ccncc3)CC2)ccn1,-0.0904%
22,CN(CCC1CCOCC1)C(=O)C1CCC(=O)N(Cc2ccccn2)C1 (stereo not drawn),13.4%
23,NC(=O)NCC1CCCCN1C(=O)c1ccc(Br)s1 (stereo not drawn),-8.99%

row,Compound,cytotoxicity at 70.5 h
1,CCCNC(=O)CCNC(=O)c1sc2ccc(F)cc2c1C,31.9%
2,CN(Cc1cnn(C)c1)C(=O)C(c1ccccc1)N1CCSCC1 (stereo not drawn),-9.84%
3,COc1ccc2c(c1)OCC(CNc1cc(N)nc(SC)n1)C2 (stereo not drawn),-0.598%
4,Cc1ccc(Br)cc1S(=O)(=O)NCCc1nnc[nH]1,11.5%
5,COCCNC(=O)CN1CCN(c2nc(C)cs2)CC1,-3.26%
6,Cc1cccc(-c2nc3cc(S(=O)(=O)N4CCCC4)ccc3n2C)n1,-10.3%
7,CCc1nnc(CN2CCC(c3nc4cc(Cl)ccc4o3)CC2)o1,-11.3%
8,Cn1ccc2c(C(=O)N3CC[C@@]4(O)CCCC[C@H]4C3)cccc21,0.292%
9,CCc1nnc(Nc2cccc(C3CCN(CCO)CC3)n2)s1,7.17%
10,Cc1nc2c(c(=O)[nH]1)CN(Cc1ccc3c(c1)CCCN3C)CC2,1.02%
11,COC(C)c1nc(CN2CCCNCC2)cs1 (stereo not drawn),-3.19%
12,CCc1noc(C(C)N2CCN(CCc3ccncc3)CC2)n1 (stereo not drawn),-5.36%
13,Cc1cc(OCC(=O)NS(=O)(=O)c2c(C)noc2C)ccc1Cl,-7.45%
14,CSCc1nc(C(C)(C)NC(=O)OC(C)(C)C)no1,-7.03%
15,CCOCCN1CCN(CCCS(C)(=O)=O)CC1C (stereo not drawn),11.8%
16,O=C(c1ccsc1)N1CCc2c(CNc3ncccn3)n[nH]c2C1,3.39%
17,CCN(C(=O)CCOC)C(c1ccc(Cl)cc1)c1ccccn1 (stereo not drawn),-6.55%
18,O=C(NC1CCN(c2cccc(OC(F)(F)F)c2)C1=O)C1CCC1 (stereo not drawn),-2.94%
19,O=C(N[C@@H]1CN(Cc2ccoc2)C[C@@H]2CCCO[C@@H]21)C1CCC1,-11.2%
20,CCOCc1nn(C)c2c1CN(Cc1cccs1)CC2,-7.58%
21,CCN1C[C@@H]2CN(C(=O)NCc3ccccc3)CCC[C@]2(C(=O)O)C1,-15.2%
22,Cc1nnc(SCCCNC(=O)Cc2ccc3c(c2)OCO3)s1,11.5%
23,Cc1ncc(CN2CCCC(O)(c3ccc(F)cc3)CC2)n1C (stereo not drawn),-5.42%

row,Compound,cytotoxicity at 70.5 h
1,O=C(NCCCc1ccncc1)C1CCCN(Cc2ccco2)C1 (stereo not drawn),9.58%
2,CC(C)(CO)CCCNC(=O)NC1(c2ccccc2F)CC1,3.5%
3,Cn1cc(C[C@H]2[C@H](O)CCN2Cc2ccncc2)cn1,-5.7%
4,Cn1cc(Cl)cc1C(=O)N1CCN(Cc2cccs2)CC1,-12.6%
5,CS(=O)(=O)N1CCc2nc(NC(=O)Nc3c(F)cccc3F)sc2C1,0.946%
6,CO[C@H]1CN(S(=O)(=O)c2ccccc2F)C[C@@]12CCCO2,-7.14%
7,CC(C)NC(=O)N1CC(=O)c2sc(NC3CCCCC3)nc2C1,3.79%
8,Cc1cccc(CN2CCC3(CC(C(=O)NCC(C)C)=NO3)C2)c1 (stereo not drawn),-5.06%
9,COc1ccccc1C(=O)N1CC(=O)N(C2CCCCC2)CC(O)C1 (stereo not drawn),15.8%
10,CCS(=O)(=O)N1CCc2c(CN(C)Cc3ccco3)cncc2C1,-6.14%
11,O=C(O)CN1CCC2(CCc3ccccc32)CC1,13.9%
12,CCCNC(=O)CCNC(=O)N1CCC(=Cc2ccccc2)CC1,-4.61%
13,Cc1cn2nc(N3CCN(Cc4cc(C)on4)CC3)sc2n1,-2.77%
14,CC(C)c1nc(CC(=O)N2CCCC(n3cncn3)C2)cs1 (stereo not drawn),2.88%
15,CC(C)COC(C)C(=O)NCc1ccccc1 (stereo not drawn),-5.1%
16,COCC(=O)NC[C@@]1(COc2cnccn2)C[C@@H](O)[C@@H](O)C1,13.8%
17,CC(C)c1nn(C)c(Cl)c1CNCC(O)c1cccc(F)c1 (stereo not drawn),-10.3%
18,CCS(=O)(=O)N1Cc2ncn(CC3CC3)c2C(COC)C1 (stereo not drawn),-0.679%
19,NCC(=O)N1CCCCC1c1ccc(F)cc1 (stereo not drawn),-2.07%
20,CN(CC1(C)COC1)C(=O)c1cc(-c2cnn(C)c2)nc2ccccc12,-6.09%
21,Fc1cccc(F)c1Cn1c(C2CCCNC2)cc2cccnc21 (stereo not drawn),-5.53%
22,CC(C)n1cnc(C2CN(C)c3ccc(C(=O)NC4CCCC4)cc32)n1 (stereo not drawn),-5.54%
23,Cn1ncc2c(N3CC(N4CCCCC4)C3)nc(-c3ccncc3)nc21,-12.9%

row,Compound,cytotoxicity at 70.5 h
1,Cc1nn(C)c2nc(N(CCOc3ccccc3)CC3CCCO3)sc12 (stereo not drawn),21%
2,O=C(NC1CC1)c1cc(NC(=O)N2CCCC(O)C2)ccc1Cl (stereo not drawn),-7.86%
3,CCSCCNc1cc(C)nc2c(C)c(C)nn12,-4.65%
4,CCn1cc(CN2CCCN(C(=O)CCn3cc(C)cn3)CC2)cn1,-12.3%
5,Cc1ccc(F)c(NCc2ccc(C(=O)N(C)C)[nH]2)c1,-3.46%
6,Cc1ncsc1C(=O)NCCn1nc(C2CCNC2)c2cccnc21 (stereo not drawn),-14.3%
7,O=C(c1ccnnc1)N1CCc2onc(Cn3cccn3)c2C1,-3.08%
8,O=C(c1c(O)cc(F)cc1F)N1CCc2cnccc21,0.9%
9,CCc1ccc(CN2C[C@@H]3COC[C@H](NS(C)(=O)=O)[C@@H]3C2)o1,-18.1%
10,Cc1cccc(C(=O)N2C[C@@H]3CCN(c4cccnc4)C[C@@H]3C2)c1,31.2%
11,Cc1ccc(N2CCCC3(COCCN(c4cnccn4)C3)C2)nn1 (stereo not drawn),-0.306%
12,Cc1cc(NC(=O)CN2C(=O)CC(C)(C)c3ccccc32)no1,-3%
13,O=C(c1cocn1)N1CCC2(CC1)CC(OCC1CC1)CO2 (stereo not drawn),-8.99%
14,CCc1n[nH]c(C2CN(C(=O)COCC(F)(F)F)CCO2)n1 (stereo not drawn),-10.6%
15,Cc1cc(C)n(-c2nc(C(=O)NCCN3CCC(C)CC3)cs2)n1,-5.84%
16,O=c1oc(-c2ccccc2)nn1CN1CCC(N2CCCCC2)CC1,24.3%
17,Cc1ccc(NC2CCN(C(=O)c3cccnc3N(C)C)CC2)nn1,0.412%
18,OC1(CN2CCCC2)CCCN(c2ncnc3[nH]cnc23)C1 (stereo not drawn),-2.89%
19,CC(C)N1CCN(C)CC1c1nnc2ccc(C(=O)N3CCCC3)cn12 (stereo not drawn),-11.5%
20,COC[C@]12COC[C@H]1CN(Cc1cccnc1OC)C2,-19%
21,CN1CCC(N(C)c2ccccc2CNCc2ccco2)CC1,30.3%
22,O=C(NCc1nc(C2CC2)no1)N1CCOC(c2ccccc2)C1 (stereo not drawn),-13.1%
23,Cc1oc(-c2ccco2)nc1CC(=O)NCC(C)(C)N(C)C,-8.24%

row,Compound,cytotoxicity at 70.5 h
1,COCCN(C)C(C(=O)O)c1ccc(Cl)c(F)c1 (stereo not drawn),-5.39%
2,CC(=O)c1cccc(-n2nc(C(C)=O)c(C(C)=O)c2C)c1,-2.25%
3,CC1CCCN(C(=O)CNC(=O)c2ccoc2)C1 (stereo not drawn),49.9%
4,O=C(NS(=O)(=O)c1ccc2c(c1)CCC2)C1COCCO1 (stereo not drawn),26.8%
5,Cc1ccnc(OC[C@@]23CCO[C@@H]2CCN(c2ncccn2)C3)n1,5.78%
6,CSc1[nH]c(=O)c(C(=O)N2CCCC2C2CCCC2)cc1C#N (stereo not drawn),-5.31%
7,CNC(=O)c1cn[nH]c1C1CCCN1c1nc(C)cc(C)n1 (stereo not drawn),-3.88%
8,CC(c1nc(C2CC2)no1)N1CCN(CCOCC(F)(F)F)CC1 (stereo not drawn),-8.3%
9,COc1ccc(C(=O)N2C[C@@H](NC(=O)N(C)C)[C@H](C(C)C)C2)c(OC)n1,-11.2%
10,O=C(C1CNCCN1C(=O)CCc1cccnc1)N1CCOCC1 (stereo not drawn),3.27%
11,COc1cc(N2C[C@H]3CN(C(=O)c4cnccn4)C[C@H]3C2)ncn1,-2.87%
12,COC(=O)NCC(=O)N1CCc2cc(Cl)cc(Cl)c2C1,-1.77%
13,Cc1n[nH]c(C(=O)N2CCCC(C)CC2)c1Br (stereo not drawn),-5.15%
14,CCN1CCCC1CNCc1cc2cc3c(cc2[nH]c1=O)OCCO3 (stereo not drawn),-1.38%
15,NC(=O)[C@@H]1Cc2ccccc2N1C(=O)C1CC(c2ccccc2)=NO1 (stereo partly drawn),6.72%
16,CC(C)c1nc2cc(NC(=O)Cn3ccc(=O)[nH]c3=O)ccc2o1,-8.49%
17,O=C(Cc1ccncc1)N1CCC2(CC1)CC(c1ccccc1)CO2 (stereo not drawn),19.4%
18,CN(Cc1n[nH]c2c1CCC2)C(=O)c1cccc(CCC(C)(C)O)c1,1.92%
19,Cc1cccn2cc(CN3CCCC(c4ccn[nH]4)C3)nc12 (stereo not drawn),0.654%
20,O=C(NCc1cc2ccccc2s1)c1cc(CN2CCCC(O)C2)on1 (stereo not drawn),-3.19%
21,CC1(C)CC(C(=O)N2CCC3(CCC(=O)N(C4CC4)C3)CC2)CCO1 (stereo not drawn),-4.55%
